The source of these data is patent publication US9133505B2 (priority 2010, dated 2015).

Values joined by “and” are separate entries in the source; they are usually repeats but may differ in a detail not shown here. Identical values can stand only once. Like-named read-outs stand apart in the source and are kept apart here.

A short description of data set [1]: Mortality in 28-day 1,3-PS study. The conditions noted are these: 50 mg/kg/day oral gavage, group of six male rats. It is filed as in vivo, Sprague Dawley rat. As to the method: Groups consisting of six male Sprague Dawley rats (7-8 weeks old) were treated on twenty-eight consecutive days (i.e., days 1 through 28) with either water (vehicle), 12.5 mg 1,3-PS per kilogram body weight per day, 25 mg 1,3-PS per kilogram body weight per day, or 50 mg 1,3-PS per kilogram body weight per day via oral gavage. […] Tail vein blood specimens were collected on day −1 (i.e., one day before the start of treatment), and again on days 15, 29, and 42.

The test system of the next data set is reticulocytes. The data set can be described thus: Percentage of reticulocytes among total erythrocytes (bone marrow toxicity), pre-magnetic field analysis.
In data set [2] the test system is Pig-A mutant phenotype RBCs and RETs.
For data set [3] the test system is unchanged. The data set can be described thus: Pig-A mutation assay, spiking experiment (Example 2). The settings on record: blood day 35.
The test system is the same in data set [4]. The experiment in a line: Pig-A mutation assay, technical replicates (Example 1): flow cytometric scoring of CD59-negative RBCs/RETs before and after immunomagnetic separation. The settings on record: 60 mg/kg/day oral gavage days 1-3, blood day 29.
Setting [5] is: 28 consecutive days oral gavage, 6 male rats per group, maximum observed on d29.
[6] abbreviates: 28 consecutive days oral gavage, 6 male rats per group, maximum observed on d42.
The mark [7] stands for this setting: "100" sample: 40 mg/kg/day 1,3-PS days 1-14, from pre- and post-magnetic field ratios (Table VI), listed as 100.
Where [8] appears, read: "100" sample: 40 mg/kg/day 1,3-PS days 1-14, post-magnetic field, 4 min, listed as 100.
The mark [9] stands for this setting: "100" sample: 40 mg/kg/day 1,3-PS days 1-14, post-magnetic field, listed as 100.
The mark [10] stands for this setting: calculated from pre- and post-magnetic field ratios, technical replicates, listed as PS.
The mark [11] stands for this setting: post-magnetic field, 4 min acquisition, technical replicates, listed as PS.
Setting [12] is: post-magnetic field, technical replicates, listed as PS.
The mark [13] stands for this setting: pre-magnetic field, 3 min acquisition, technical replicates of one rat, listed as PS.

Regarding `O=S1(=O)CCCO1` [1,3-Propane Sultone, 1,3-propane sultone], the Mortality result in data set [1] is “one rat in the high dose group died on day 11”. Further, the “% RET” value in the data set with reticulocytes (60 mg/kg/day oral gavage days 1-3, blood day 29, technical replicates, listed as PS) was 4.02% and 4.08% (2×); in the data set with reticulocytes ("100" sample: 40 mg/kg/day 1,3-PS oral gavage days 1-14, blood day 35, listed as 100) it was 5.92% and 5.9%. Further, the “% RET versus vehicle (in words)” value in the data set with reticulocytes (12.5, 25, 50 (reduced to 37.5) mg/kg/day for 28 days, Day 15, FIG. 5A) is recorded as “reduced in a dose-dependent manner”. In data set [2] (12.5, 25, 50 (reduced to 37.5) mg/kg/day for 28 days, Day 15 through Day 42, FIG. 5C), the “Mutant RBC frequency versus vehicle-treated rats (in words)” value is reported as “significantly higher than those observed in vehicle-treated rats from Day 15 through Day 42”. Also, the “Mutant RET frequency versus vehicle controls (in words)” value in data set [2] (12.5, 25, 50 (reduced to 37.5) mg/kg/day for 28 days, days 15, 29, 42, FIG. 5B, Dunnett's t-test p<0.05) is on record as “each dose group was significantly elevated relative to vehicle controls at every time point studied”. Moreover, in data set [2] (setting [5]), the “Maximum Avg. Mutant Cell Freq., Mutant RETs” value is recorded as 106 Mutant RETs (d29); × 10^−6. The “Maximum Avg. Mutant Cell Freq., Mutant RBCs” value in data set [2] (setting [6]) is recorded as 72 Mutant RBCs (d42) × 10^−6. The “Mutant RBCs per 10^6 Total RBCs” value was 30 per 10^6 Total RBCs and 34.1 per 10^6 Total RBCs in data set [3] (setting [7]); 61.1 per 10^6 Total RBCs and 65.7 per 10^6 Total RBCs and 55 per 10^6 Total RBCs in data set [4] (setting [10]). The “Mutant RETs per 10^6 Total RETs” value in data set [3] (setting [7]) was 25.2 per 10^6 Total RETs and 31.2 per 10^6 Total RETs; in data set [4] (setting [10]), 22 per 10^6 Total RETs and 16.6 per 10^6 Total RETs and 17.7 per 10^6 Total RETs. For the same compound, the “Mutant RBCs per 10^6 Total RBCs (Post-Column)” value in data set [3] ("100" sample: 40 mg/kg/day 1,3-PS days 1-14, post-column, avg 112,632,575 RBCs interrogated per sample, listed as 100) was 30 per 10^6 Total RBCs and 34.1 per 10^6 Total RBCs. Moreover, the “Mutant NCEs (events counted), POST-Magnetic Field Analyses” value in data set [3] (setting [8]) was 3,304 and 3,192; in data set [4] (setting [11]) it was 6,466 and 7,590 and 7,054. In addition, the “Mutant RETs (events counted), POST-Magnetic Field Analyses” value is 173 and 182 in data set [3] (setting [8]); 95 and 79 and 94 in data set [4] (setting [11]). Also, the “Mutant RBC:Bead Ratio, POST-Magnetic Field Analyses” value in data set [3] (setting [9]) was 0.2402 and 0.2497; in data set [4] (setting [12]) it was 0.4138 and 0.4132 (2×). Also, the “Mutant RET:Bead Ratio, POST-Magnetic Field Analyses” value was 0.01195 and 0.01347 in data set [3] (setting [9]); 0.00599 and 0.00426 and 0.3748 in data set [4] (setting [12]). Further, the “Mutant RBCs per 10^6 Total RBCs (Pre-Column)” value in data set [3] ("100" sample: 40 mg/kg/day 1,3-PS days 1-14, pre-column, avg 1,323,693 RBCs interrogated per sample) stood at 27 per 10^6 Total RBCs. Moreover, the “Mutant NCEs (events counted), PRE-Magnetic Field Analyses” value is 36 and 31 in data set [3] ("100" sample: 40 mg/kg/day 1,3-PS days 1-14, pre-magnetic field, 3 min, listed as 100); 83 and 75 and 64 in data set [4] (setting [13]). The “Mutant RETs (events counted), PRE-Magnetic Field Analyses” value was 1 in data set [3] ("100" sample: blood of rat given 40 mg/kg/day 1,3-PS oral gavage days 1-14, pre-magnetic field, 3 min); 1 (2×) and 2 in data set [4] (setting [13]). Besides, the “Frequencies of mutant phenotype RBCs and RETs versus vehicle (in words)” value in data set [4] is “clearly led to elevated frequencies of mutant phenotype RBCs and RETs”.
`CC(=O)Nc1ccc2c(c1)Cc1ccccc1-2` [2-Acetylaminofluorene]: in data set [2] (setting [5]), the “Maximum Avg. Mutant Cell Freq., Mutant RBCs” value is 58 Mutant RBCs (d29) × 10^−6. Moreover, the “Maximum Avg. Mutant Cell Freq., Mutant RETs” value in data set [2] (setting [6]) was 50 Mutant RETs (d42); × 10^−6.
For the compound `Cn1cnc([N+](=O)[O-])c1Sc1ncnc2nc[nH]c12` [Azathioprine], the “Maximum Avg. Mutant Cell Freq., Mutant RETs” value in data set [2] (male, Sprague Dawley, rat, in vivo, po, 29 day) is given as 13 Mutant RETs (d29); × 10^−6. Besides, the “Maximum Avg. Mutant Cell Freq., Mutant RBCs” value in data set [2] (male, Sprague Dawley, rat, in vivo, po, 42 day) was 4 Mutant RBCs (d42) × 10^−6.
For the compound `O=C(O)CCCc1ccc(N(CCCl)CCCl)cc1` [Chlorambucil], in data set [2] (setting [6]), the “Maximum Avg. Mutant Cell Freq., Mutant RBCs” value is 21 Mutant RBCs (d42) × 10^−6 and the “Maximum Avg. Mutant Cell Freq., Mutant RETs” value is on record as 40 Mutant RETs (d42); × 10^−6.
For the compound `O=P1(N(CCCl)CCCl)NCCCO1` (stereo not drawn) [Cyclophosphamide], the “Maximum Avg. Mutant Cell Freq., Mutant RETs” value in data set [2] (setting [5]) is listed as 5 Mutant RETs (d29); × 10^−6. Also, in data set [2] (setting [6]), the “Maximum Avg. Mutant Cell Freq., Mutant RBCs” value is 3 Mutant RBCs (d42) × 10^−6.
Turning to `N[C@@H](Cc1ccc(N(CCCl)CCCl)cc1)C(=O)O` [Melphalan], in data set [2] (setting [6]), the “Maximum Avg. Mutant Cell Freq., Mutant RBCs” value is on record as 23 Mutant RBCs (d42) × 10^−6 and the “Maximum Avg. Mutant Cell Freq., Mutant RETs” value was 33 Mutant RETs (d42); × 10^−6.
Turning to `S=P(N1CC1)(N1CC1)N1CC1` [Thiotepa], the “Maximum Avg. Mutant Cell Freq., Mutant RETs” value in data set [2] (setting [5]) is listed as 79 Mutant RETs (d29); × 10^−6. Besides, the “Maximum Avg. Mutant Cell Freq., Mutant RBCs” value in data set [2] (setting [6]) was 69 Mutant RBCs (d42) × 10^−6.
